Consider 13 compounds from publication PMC11056994, “Potentiating Activity of GmhA Inhibitors on Gram-Negative Bacteria” (Journal of Medicinal Chemistry, 2024).

Read-outs that look alike come from different tables or passages of the source.

Assay [1] concerns E. coli C7 (018:K1:H7) LPS biosynthesis. Briefly: Inhibition of bacterial LPS biosynthesis (silver-stained LPS SDS-PAGE). In kind it is cell-based. As to conditions: for EC50: Escherichia coli. Here is the method: The compounds to be tested were prepared in deionized water/DMSO (50/50) solutions and added (25 μL) in sterile culture microtubes. The test bacterial isolate was isolated on tryptic soy agar (TSA) overnight. Isolated colonies were cultured in 10 mL of LB medium at 37 °C up to an OD of typically 0.15. These exponentially growing bacteria were finally diluted to 5 × 10^5 cfu/mL and added in each well (225 μL) for incubation with the compounds at 37 °C for approximately 5 h, up to an OD of ≈0.2–0.4. Some test compounds, e.g., phospho-sugars are actively transported into the bacterial cytosol via the phospho-sugar transporter UhpT (Figure S3). 2.5 μL portion of a 10 mM water solution of glucose-6-phosphate (G6P, 100 μM final concentration, from Sigma) was added in the culture tube in order to induce UhpT expression. LPS extraction: Bacterial cultures were normalized via OD determination, pelleted, and washed with 1 mL of phosphate-buffered-saline (PBS). The pellets were then denatured for 10 min at 95–100 °C in 50 μL of 0.2% sodium dodecyl sulfate (SDS), β-mercaptoethanol 1%, glycerol 36%, Tris 30 mM, pH 7.4, and bromophenol blue 0.001%. Samples were cooled down to room temperature, supplemented with 1.5 μL of proteinase K at 20 mg/mL, incubated for 1 h at 55 °C, and centrifuged for 30 min at 13,000 rpm at 25 °C. The resulting supernatant, containing LPS, was finally analyzed by SDS-PAGE electrophoresis. LPS SDS-PAGE electrophoresis: Polyacrylamide gels (16%/4% acrylamide for separation and concentration, respectively) were prepared, loaded with 8 μL of LPS extracts, and migrated. Silver staining: Gels were incubated overnight in 5% acetic acid/40% ethanol/deionized water, treated by 1% periodic acid/5% acetic acid for 15 min, washed 4 times for 10 min in deionized water, and finally incubated for 18 min in the dark in a silver nitrate solution composed of 56 mL of 0.1 M NaOH (56 mL), 33% aq ammonia (4 mL), 5% AgNO3 (45 mL), and deionized water (195 mL). Gels were then washed extensively in deionized water for 30 min and incubated for 10–15 min (up to LPS band appearance) in the revelation mix composed of 300 mL of deionized water (300 mL), 36.5% formaldehyde (0.3 mL, Fluka), and 2.3 M citric acid (0.1 mL). The revelation was stopped by incubating the gels in 10% acetic acid for 5 min. Gels were finally washed in deionized water, numerized with a Samsung PL51 camera, and analyzed by ImageJ software. The percentage of inhibition of LPS heptosylation was defined as the relative area of the Re-LPS band compared to the cumulated areas of Re-LPS and Core-LPS bands.

Assay [2] has as its target E. coli GmhA (Escherichia coli, UniProt P63224). In kind it is biochemical. As to conditions: for IC50: E. coli GmhA, luminescence assay, mean ± SD of at least 3 independent experiments. Here is the method:
The assay buffer “AB” contained 50 mM HEPES, pH 7.5, 1 mM MnCl2, 25 mM KCl, 0.012% Triton-X100, 1 mM dithiothreitol (DTT), and 0.1 μM myelin basic protein (MBP, Sigma, ref M1891). The following components were added in a white polystyrene Costar plate up to a final volume of 30 μL: 10 μL of inhibitor dissolved in DMSO/water 50/50 and 20 μL of GmhA of E. coli in AB. After 30 min of preincubation at room temperature, 30 μL of the substrate mixture in AB were added in each well to give a final volume of 60 μL. […] After 30 min of incubation at room temperature, 100 μL of the revelation mix were added to a final volume of 160 μL, including the following constituents at the respective final concentrations: 10,000 light units/mL luciferase (Sigma), 20 μM D-luciferin (Sigma), and 100 μM N-acetylcysteamine (Aldrich). Luminescence intensity was immediately measured on a Luminoskan instrument (Thermofisher) and converted into inhibition percentages. For IC50 determinations, the inhibitor was tested at 6 to 10 different concentrations, and the related inhibitions were fitted using XLFit 5 (IDBS) to a classical Langmuir equilibrium model with Hill slope, according to the equation: %inhibition = 100 c^n/(c^n + IC50^n), where c is the compound concentration and n is the Hill coefficient.

The test system of assay [3] is E. coli C7 gmhA-. In words: Complementation of E. coli C7-gmhA- by H7P (LPS SDS-PAGE, UhpT transport). In kind it is cell-based. The procedure: Figure S3: Role of UhpT phospho-sugar transporter in the transport of D-glycero-D-manno-heptose
7-phosphate (H7P). Complementation of E. coli C7-gmhA- by the GmhA product H7P. Silver-stained
LPS SDS-PAGE of E. coli C7 WT (lane 1) or gmhA- (lanes 2 -4). Culture in presence of 300 µM H7P (lane
100 µM glucose -6-phosphate (G6P) allows a strong transport of H7P, as evidenced by the restoration
(1 picture or pasted object on this page, not shown here)

The test system of assay [4] is E. coli C7 (O18:K1:H7). Briefly: Time-kill kinetics of rifampicin in combination with compound 17. In kind it is cell-based. As to conditions: 17 300 μM alone or rifampicin 1 mg/L alone. The procedure: Rifampicin (Fluka) was diluted in DMSO, and the compound to be tested was diluted in water from 50 mM stock solution in 50 mM HEPES buffer, pH 7.4. Ten microliter of DMSO was distributed in sterile 1.5 mL polypropylene microtubes (Eppendorf). 2.5 μL of compound dilution or water, 2.5 μL of Rifampicin or DMSO, 2.5 μL of 10 mM G6P in water (100 μM final concentration), and 230 μL of LB were added to the microtubes. E. coli C7 (O18:K1:H7) was grown in 5 mL of LB broth at 37 °C until mid-log phase. The suspension was then diluted in LB to obtain a 100× inoculum of 5 × 10^7 cfu/mL, 2.5 μL of which were added to each microtube (5 × 10^5 cfu/mL final inoculum). The microtubes were incubated at 37 °C, and aliquots of 10 μL were sampled at 0, 2, 4, 6, 8, and 24 h for bacterial enumeration in duplicate.

Assay [5] has as its system E. coli C7 (O18:K1:H7). In words: MIC determination of antibiotics combined with a GmhA inhibitor. In kind it is cell-based. As to conditions: Escherichia coli, n = 1. Here is the method: The compound to be tested was diluted in 50 mM HEPES buffer (pH 7.4) from 10 mM stock solution in DMSO. Five microliters of compound dilution or buffer were distributed in a sterile clear round-bottom 96-well polystyrene microplate (Corning). Five microliters of serial 2-fold dilutions of reference antibiotics [Erythromycin (Fluka), Rifampicin (Fluka)] in DMSO were added. An exponentially growing preculture of E. coli C7 (O18:K1:H7) in LB was diluted to 10^4 cfu/mL and supplemented with 100 μM G6P, and 90 μL of this suspension were added to the microplates. After overnight incubation at 37 °C, the MIC of the antibiotics were determined for each test compound concentration as the lowest antibiotic concentration for which no bacterial pellet is visible without magnification.

[6] abbreviates: antibiotic alone, E. coli C7, 100 μM G6P, read-out: MIC alone.
[7] abbreviates: antibiotic combined with 100 μM 17, E. coli C7, 100 μM G6P, read-out: MIC +100 μM cpd 17.
Setting [8] is: E. coli C7 LPS biosynthesis by SDS-PAGE, mean ± SD of 3 experiments for 17 and 24, n = 1 for others, read-out: EC50.

The EC50 is the midpoint of the concentration-response curve. The term IC50 denotes the concentration that inhibits the measured activity by half. High values mean weaker potency in that assay, low ones greater potency in that assay. One may read the MIC as the least concentration at which growth counts as inhibited.

E. coli GmhA, sequence (P63224 whole entry): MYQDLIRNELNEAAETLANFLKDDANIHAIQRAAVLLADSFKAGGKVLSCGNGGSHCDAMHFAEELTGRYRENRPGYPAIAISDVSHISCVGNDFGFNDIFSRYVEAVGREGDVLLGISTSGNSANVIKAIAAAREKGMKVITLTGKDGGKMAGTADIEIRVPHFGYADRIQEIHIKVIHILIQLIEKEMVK

In assay [1], `O=CN(O)C[C@H](O)[C@H](O)[C@H](O)C(O)C(O)P(=O)(O)O` (stereo partly shown) [Compound 27] returned an EC50 of more than 3000 µM. The IC50 in assay [2] is 2.3 ± 0.6 µM.
`O=CN(O)C[C@H](O)[C@H](O)[C@H](O)CC(F)(F)P(=O)(O)O` [Compound 84]: it took 510 µM to reach a half-maximal effect in assay [1] (EC50).
For `O=C[C@@H](O)[C@@H](O)[C@H](O)[C@H](O)[C@H](O)COP(=O)(O)O` [H7P, D-glycero-D-manno-heptose 7-phosphate], the “LPS profile restoration in gmhA- strain” value in assay [3] (300 µM H7P, without G6P (lane 3)) is “restores some full length LPS”; in assay [3] (H7P with UhpT induction by 100 µM glucose-6-phosphate (lane 4)), “full LPS profile”.
Regarding `CO[C@H]1/C=C/O[C@@]2(C)Oc3c(C)c(O)c4c(O)c(c(/C=N/N5CCN(C)CC5)c(O)c4c3C2=O)NC(=O)/C(C)=C\C=C\[C@H](C)[C@H](O)[C@@H](C)[C@@H](O)[C@@H](C)[C@H](OC(C)=O)[C@@H]1C` [Rifampicin], the “effect on bacterial growth, compound alone” value in assay [4] is on record as “did not alter at all the bacterial growth”. Moreover, the MIC was found to be 4 µg/mL in assay [5] (setting [6]) and 0.25 µg/mL in assay [5] (setting [7]).
On to `CC[C@H]1OC(=O)[C@H](C)[C@@H](O[C@H]2C[C@@](C)(OC)[C@@H](O)[C@H](C)O2)[C@H](C)[C@@H](O[C@@H]2O[C@H](C)C[C@H](N(C)C)[C@H]2O)[C@](C)(O)C[C@@H](C)C(=O)[C@H](C)[C@@H](O)[C@]1(C)O` [Erythromycin], for which the MIC was determined as 32 µg/mL in assay [5] (setting [6]) and 1 µg/mL in assay [5] (setting [7]).
For `O=CN(O)C[C@H](O)[C@H](O)[C@H](O)CC(F)P(=O)([O-])O.[Na+]` (stereo partly shown) [Compound 76], the half-maximal effective concentration (EC50) in assay [1] was 76 µM. The “GmhA inhibition IC50 (in words)” value in assay [2] is on record as “low nanomolar range”.
Compound `O=CN(O)C[C@H](O)[C@H](O)[C@H](O)C(O)CP(=O)(O)O` (stereo partly shown) [Compound 31] gave an EC50 in assay [1] of 590 µM. In assay [2], this compound returned an IC50 of 0.25 ± 0.02 µM.
Compound `O=CN(O)C[C@H](O)[C@H](O)[C@H](O)/C=C/P(=O)(O)O` [Compound 25] came in with a concentration for a half-maximal effect (EC50) in assay [1] of 1300 µM. In assay [2], this compound displayed an IC50 of 0.15 ± 0.03 µM.
As to `O=C(NO)[C@@H](O)[C@H](O)[C@H](O)[C@H](O)COP(=O)(O)O` [Compound 96], the “concentration above which bacterial growth is affected” value in assay [1] (E. coli culture of the LPS assay) is more than 100 µM. Besides, the EC50 in assay [1] (setting [8]) is more than 100 µM. Also, in assay [2], the “GmhA inhibition IC50 (in words)” value is “low nanomolar range” and the IC50 came to 0.016 ± 0.006 µM.
In turn, `O=CN(O)C[C@@H](O)[C@H](O)[C@H](O)CCP(=O)(O)O` [Compound 54] displayed an EC50 in assay [1] of more than 300 µM. The compound further had an IC50 in assay [2] of 9.2 ± 1.6 µM.
Regarding `O=CN(O)C[C@H](O)[C@H](O)[C@H](O)CP(=O)(O)O` [Compound 20], in assay [1] (setting [8]), the concentration giving a half-maximal response (EC50) is more than 3000 µM. Also, in assay [2], it took 2.2 ± 0.5 µM to reach half-maximal inhibition (IC50).
For the compound `O=CN(O)C[C@H](O)C[C@H](O)CCP(=O)(O)O` [Compound 68], the EC50 in assay [1] (setting [8]) was determined as 1200 µM. The compound further registered an IC50 in assay [2] of 3 ± 0.2 µM.
As to `O=CN(O)C[C@H](O)[C@H](O)[C@H](O)CC(O)P(=O)(O)O` (stereo partly shown) [Compound 41], a half-maximal response in assay [1] (EC50) required 750 µM. The compound also came in with an IC50 in assay [2] of 0.075 ± 0.009 µM.
